Assay results as given in publication PMC4410942 (Chemistry & Biology, 2015).

Key:
[1] = molecular target: T1, PanZ (Escherichia coli, UniProt P37613); test: 1H-15N HSQC NMR; assay type: binding; details: 0.2 mM PanZ, 50 mM Tris-HCl pH 7.5, 0.1 M NaCl, 0.1 mM DTT, 25 °C
T1 construct: co-purifies with substoichiometric CoA derivatives; monomer
T1 sequence (P37613 1-127): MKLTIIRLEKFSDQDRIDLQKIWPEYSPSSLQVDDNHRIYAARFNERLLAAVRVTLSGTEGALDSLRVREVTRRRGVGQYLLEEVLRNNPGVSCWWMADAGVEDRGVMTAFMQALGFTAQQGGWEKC

[2] = molecular target: T2, PanD-PanZ complex (PanD-PanZ.AcCoA) (Escherichia coli, UniProt P37613); test: X-ray crystal structure; assay type: binding; details: site on PanZ near the PanD interface; crystals from PEG 3350, bis-Tris propane pH 7.4; one AcCoA per PanZ
T2 construct: heterooctamer (4 PanD + 4 PanZ), about 124 kDa; with Aspartate 1-decarboxylase

[3] = molecular target: T2, PanD-PanZ complex (PanD-PanZ.AcCoA); test: X-ray crystal structure; assay type: binding; details: site on PanZ near the PanD interface; crystals from PEG 3350, bis-Tris propane pH 7.4; one AcCoA per PanZ; remark: listed apart in the source
[4] = molecular target: ADC (activated PanD) (Escherichia coli, UniProt P0A790); details: without PanZ; 25 °C; 2.5 μM ADC; curves with and without PanZ.AcCoA fitted with a shared KM

| SMILES | 1H-15N HSQC NMR [1] | X-ray crystal structure [2] | X-ray crystal structure [3] | KM [4] |
| --- | --- | --- | --- | --- |
| CC(=O)SCCNC(=O)CCNC(=O)[C@H](O)C(C)(C)COP(=O)(O)OP(=O)(O)OC[C@H]1O[C@@H](n2cnc3c(N)ncnc32)[C@H](O)[C@@H]1OP(=O)(O)O [AcCoA] | Addition of excess AcCoA led to simplification of the spectrum (Figure 3D) | 4CS0 (PanD(S25A)-PanZ.AcCoA) | PDB ID 4CRZ (PanD(T57V)-PanZ.AcCoA) |  |
| N[C@@H](CC(=O)O)C(=O)O [compound 5, L-aspartate] |  |  |  | Individual curves are fitted to the Michaelis-Menten curve with a shared value of KM |
